Source: patent US7109193B2, “Tricyclic diazepines tocolytic oxytocin receptor antagonists” (Wyeth, priority 2001, dated 2006)

Target: T1, human vasopressin V1a receptor subtype (Homo sapiens, UniProt P37288)
T1 construct: host or cells: CHO cells (pZeoSV vector for the Thibonnier line)
Experiment: Vasopressin binding in Chinese Hamster Ovary cell membranes expressing human vasopressin V1a subtype receptors
Conditions: 100 nM, CHO cell membranes, [3H]Manning ligand, values without parentheses
How it was run: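 Membranes from CHO cells expressing human V1a receptor were incubated with [3H]Manning ligand (added as 20 μL of 8 nM) in pH 7.4 Tris buffer with MgCl2, BSA and protease inhibitors, 60 min at room temperature. Bound radioactivity was counted after filtration; values are percent inhibition at a stated concentration or IC50.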

T1 sequence (P37288 whole entry): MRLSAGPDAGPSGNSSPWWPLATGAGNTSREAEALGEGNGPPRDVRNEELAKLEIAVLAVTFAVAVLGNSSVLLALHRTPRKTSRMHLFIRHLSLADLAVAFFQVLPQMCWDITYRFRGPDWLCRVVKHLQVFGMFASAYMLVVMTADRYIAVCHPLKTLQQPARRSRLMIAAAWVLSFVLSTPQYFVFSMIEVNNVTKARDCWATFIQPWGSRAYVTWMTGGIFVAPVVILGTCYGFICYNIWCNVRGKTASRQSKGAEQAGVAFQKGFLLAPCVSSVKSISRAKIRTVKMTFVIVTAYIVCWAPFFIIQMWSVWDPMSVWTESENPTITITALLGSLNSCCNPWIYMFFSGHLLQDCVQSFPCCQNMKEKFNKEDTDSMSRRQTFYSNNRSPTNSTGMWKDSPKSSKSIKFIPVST

Row | SMILES | inhibition at 0.1 µM
1 | CN1CCCC1CCNC(=O)c1ccc2n1Cc1ccccc1N(C(=O)c1ccc(-c3cccc4ccccc34)cc1Cl)C2 (centres unmarked) [Example 173, 10-[2-Chloro-4-(1-naphthyl)benzoyl]-N-[2-(1-methyl-2-pyrrolidinyl)ethyl]-10,11-dihydro-5H-pyrrolo[2,1-c][1,4]benzodiazepine-3-carboxamide] | 0%
2 | COc1ccccc1-c1ccc(C(=O)N2Cc3ccc(C(=O)N(C)C4CCN(C)C4)n3Cc3ccccc32)cc1 (centres unmarked) [Example 187, 10-[(2′-Methoxy[1,1′-biphenyl]-4-yl)carbonyl]-N-methyl-N-(1-methyl-3-pyrrolidinyl)-10,11-dihydro-5H-pyrrolo[2,1-c][1,4]benzodiazepine-3-carboxamide] | 81%
3 | Cc1cc(C(=O)N2Cc3ccc(C(=O)N(C)C4CCN(C)CC4)n3Cc3ccccc32)ccc1-c1ccccc1C(F)(F)F [Example 184, N-Methyl-N-(1-methyl-4-piperidinyl)-10-{[2-methyl-2′-(trifluoromethyl)[1,1′-biphenyl]-4-yl]carbonyl}-10,11-dihydro-5H-pyrrolo[2,1-c][1,4]benzodiazepine-3-carboxamide] | 0%
4 | COc1cccc(-c2ccc(C(=O)N3Cc4ccc(C(=O)N(C)C5CCN(C)CC5)n4Cc4ccccc43)cc2C)c1 [Example 176, 10-[(3′-Methoxy-2-methyl[1,1′-biphenyl]-4-yl)carbonyl]-N-methyl-N-(1-methyl-4-piperidinyl)-10,11-dihydro-5H-pyrrolo[2,1-c][1,4]benzodiazepine-3-carboxamide] | 27%
5 | COc1cc(C(=O)N2Cc3ccc(C(=O)N4CCN(C(C)C)CC4)n3Cc3ccccc32)ccc1-c1cccc2ccccc12 [Example 236, (4-Isopropyl-1-piperazinyl){10-[3-methoxy-4-(1-naphthyl)benzoyl]-10,11-dihydro-5H -pyrrolo[2,1-c][1,4]benzodiazepin-3-yl}methanone] | 6%
6 | COc1ccccc1-c1ccc(C(=O)N2Cc3ccc(C(=O)N4CCN(C(C)C)CC4)n3Cc3ccccc32)cc1OC [Example 241, {10-[(2,2′-Dimethoxy[1,1-biphenyl]4-yl)carbonyl]-10,11-dihydro-5H-pyrrolo[2,1-c][1,4]benzodiazepin-3-yl}(4-isopropyl-1-piperazinyl)methanone] | -4%
7 | COc1cc2c(cc1OC)N(C(=O)c1ccc(-c3ccccc3C(F)(F)F)c(C)c1)Cc1cccn1C2 [Example 12, 7,8-Dimethoxy-[10,11-dihydro-5H-pyrrolo[2,1-c][1,4]benzodiazepin-10-yl][2-methyl-2′-(trifluoromethyl)[1,1′-biphenyl]-4-yl]methanone] | -10%
8 | C=CCN1CCN(C(=O)c2ccc3n2Cc2ccccc2N(C(=O)c2ccc(-c4ccccc4OC)c(OC)c2)C3)CC1 [Example 227, (4-Allyl-1-piperazinyl){10-[(2,2′-dimethoxy[1,1′-biphenyl]-4-yl)carbonyl]-10,11-dihydro-5H -pyrrolo[2,1-c][1,4]benzodiazepin-3-yl}methanone] | 2%

Other lines, results leading:

Row | inhibition at 0.1 µM | SMILES
9 | 3% | C=CCN1CCN(C(=O)c2ccc3n2Cc2ccccc2N(C(=O)c2cc(Cl)c(-c4cccc(OC)c4)cc2OC)C3)CC1 [Example 226, (4-Allyl-1-piperazinyl){10-[(6-chloro-3,3′-dimethoxy[1,1′-biphenyl]-4-yl)carbonyl]-10,11-dihydro-5H-pyrrolo[2,1-c][1,4]benzodiazepin-3-yl}methanone]
10 | 41% | COc1cccc(-c2cc(OC)c(C(=O)N3Cc4ccc(C(=O)N(C)C5CCN(C)C5)n4Cc4ccccc43)cc2Cl)c1 (centres unmarked) [Example 191, 10-[(6-Chloro-3,3′-dimethoxy[1,1′-biphenyl]-4-yl)carbonyl]-N-methyl-N-(1-methyl-3-pyrrolidinyl)-10,11-dihydro-5H-pyrrolo[2,1-c][1,4]benzodiazepine-3-carboxamide]
11 | 1% | C=CCN1CCN(C(=O)c2ccc3n2Cc2ccccc2N(C(=O)c2ccc(-c4ccccc4C)cc2)C3)CC1 [Example 224, (4-Allyl-1-piperazinyl){10-[(2′-methyl[1,1′-biphenyl]-4-yl)carbonyl]-10,11-dihydro-5H -pyrrolo[2,1-c][1,4]benzodiazepin-3-yl}methanone]
12 | 37% | COc1ccccc1-c1ccc(C(=O)N2Cc3ccc(C(=O)N(C)C4CCN(C)C4)n3Cc3ccccc32)cc1C (centres unmarked) [Example 185, 10-[(2′-Methoxy-2-methyl[1,1′-biphenyl]-4-yl)carbonyl]-N-methyl-N-(1-methyl-3-pyrrolidinyl)-10,11-dihydro-5H-pyrrolo[2,1-c][1,4]benzodiazepine-3-carboxamide]
13 | 5% | COc1cc(C(=O)N2Cc3ccc(C(=O)NCCN4CCCCC4)n3Cc3ccccc32)ccc1-c1cccc2ccccc12 [Example 157, 10-[3-Methoxy-4-(1-naphthyl)benzoyl]-N-[2-(1-piperidinyl)ethyl]-10,11-dihydro-5H-pyrrolo[2,1-c][1,4]benzodiazepine-3-carboxamide]
14 | 1% | Cc1cc(C(=O)N2Cc3ccc(C(=O)N4CCN(C(C)C)CC4)n3Cc3ccccc32)ccc1-c1ccccc1C(F)(F)F [Example 240, (4-Isopropyl-1-piperazinyl)(10-{[2-methyl-2′-(trifluoromethyl)[1,1′-biphenyl]-4-yl]carbonyl}-10,11-dihydro-5H-pyrrolo[2,1-c][1,4]benzodiazepin-3-yl)methanone]
15 | 20% | COc1cccc(-c2ccc(C(=O)N3Cc4ccc(C(=O)N5CCN(CCN6CCOCC6)CC5)n4Cc4ccccc43)cc2C)c1 [Example 208, {10-[(3′-Methoxy-2-methyl[1,1′-biphenyl]-4-yl)carbonyl]-10,11-dihydro-5H-pyrrolo[2,1-c][1,4]benzodiazepin-3-yl}{4-[2-(4-morpholinyl)ethyl]-1-piperazinyl}methanone]
16 | 73% | COc1cc(C(=O)N2Cc3ccc(C(=O)N(C)C4CCN(C)CC4)n3Cc3ccccc32)ccc1-c1ccccc1C [Example 179, 10-[(2-Methoxy-2′-methyl[1,1′-biphenyl]-4-yl)carbonyl]-N-methyl-N-(1-methyl-4-piperidinyl)-10,11-dihydro-5H-pyrrolo[2,1-c][1,4]benzodiazepine-3-carboxamide]
17 | 8% | Cc1cc(C(=O)N2Cc3ccc(C(=O)NCCC4CCCN4C)n3Cc3ccccc32)ccc1-c1ccccc1C(F)(F)F (centres unmarked) [Example 174, N-[2-(1-Methyl-2-pyrrolidinyl)ethyl]-10-{[2-methyl-2′-(trifluoromethyl)[1,1′-biphenyl]-4-yl]carbonyl}-10,11-dihydro-5H-pyrrolo[2,1-c][1,4]benzodiazepine-3-carboxamide]
18 | 39% | COc1cc(C(=O)N2Cc3ccc(C(=O)N4CCN(C(C)C)CC4)n3Cc3ccccc32)ccc1-c1ccccc1C [Example 237, (4-isopropyl-1-piperazinyl){10-[(2-methoxy-2′-methyl[1,1′-biphenyl]-4-yl)carbonyl]-10,11-dihydro-5H-pyrrolo[2,1-c][1,4]benzodiazepin-3-yl}methanone]
19 | 21% | COc1cc(C(=O)N2Cc3ccc(C(=O)NCCC4CCCN4C)n3Cc3ccccc32)ccc1-c1cccc2ccccc12 (centres unmarked) [Example 170, 10-[3-Methoxy-4-(1-naphthyl)benzoyl]-N-[2-(1-methyl-2-pyrrolidinyl)ethyl]-10,11-dihydro-5H-pyrrolo[2,1-c][1,4]benzodiazepine-3-carboxamide]
20 | 41% | COc1ccccc1-c1ccc(C(=O)N2Cc3ccc(C(=O)N(C)C4CCN(C)C4)n3Cc3ccccc32)cc1OC (centres unmarked) [Example 193, 10-[(2,2′-Dimethoxy[1,1′-biphenyl]-4-yl)carbonyl]-N-methyl-N-(1-methyl-3-pyrrolidinyl)-10,11-dihydro-5H-pyrrolo[2,1-c][1,4]benzodiazepine-3-carboxamide]
